Laboratory results reported in PMC6199744, “Development of Chemical Proteomics for the Folateome and Analysis of the Kinetoplastid Folateome” (ACS Infectious Diseases, 2018).

System: L. major lysate proteins
Assay: Multitargeted bead mixture chemoproteomics, single concentration competition, proteome-wide
Type: binding
Details: for fold change / fold change relative to vehicle control: vehicle control = 1; for fold change relative to vehicle control: competition with free ligand

CCCCCCOc1ccc(Cc2cnc(N)nc2N)cc1 [compound 1]
fold change (protein LMJF.22.1460 I/6 AUTOANTIGEN-LIKE PROTEIN): 0.95 | fold change vs vehicle control (protein LMJF.22.1540 ALANYL-TRNA SYNTHETASE, PUTATIVE): 0.85 | fold change vs vehicle control (protein LMJF.23.0370 […] OXIDASE SUBUNIT 10, PUTATIVE): 1.08 | fold change (protein LMJF.23.0830 NA/H ANTIPORTER-LIKE PROTEIN): 0.89 | fold change (protein LMJF.23.1020 HYPOTHETICAL PROTEIN, UNKNOWN FUNCTION): 0.87 | fold change (protein LMJF.23.1220 T-COMPLEX PROTEIN 1, GAMMA SUBUNIT, PUTATIVE): 1.03 | fold change vs vehicle control (protein LMJF.24.0140 ANKYRIN/TPR REPEAT PROTEIN): 1.09 | fold change (protein LMJF.24.0280 DYNEIN INTERMEDIATE-CHAIN-LIKE PROTEIN): 0.97 | fold change (protein LMJF.24.0770 MALIC ENZYME, PUTATIVE): 0.95 | fold change relative to vehicle control (protein LMJF.24.1510 IGE-DEPENDENT HISTAMINE-RELEASING FACTOR, PUTATIVE): 1.09 | fold change vs vehicle control (protein LMJF.24.1630, SUCCINATE DEHYDROGENASE FLAVOPROTEIN, PUTATIVE): 0.9 | fold change vs vehicle control (protein LMJF.24.1840 LYSOPHOSPHOLIPASE, PUTATIVE): 1.07 | fold change relative to vehicle control (protein LMJF.24.2060 TRANSKETOLASE): 0.84 | fold change (protein LMJF.24.2250 FATTY-ACID DESATURASE, PUTATIVE): 1.09 | fold change vs vehicle control (protein LMJF.25.0120 ELECTRON TRANSFER FLAVOPROTEIN, PUTATIVE): 1.75 | fold change vs vehicle control (protein LMJF.25.0260 DYNEIN LIGHT CHAIN 1, CYTOPLASMIC, PUTATIVE): 0.91 | fold change relative to vehicle control (protein LMJF.25.0910 C[…]): 1.46 | fold change vs vehicle control (protein LMJF.25.1180, ATPASE BETA SUBUNIT, PUTATIVE): 1.06 | fold change (protein LMJF.25.1610 HYPOTHETICAL PROTEIN, CONSERVED): 0.79 | fold change (protein LMJF.25.1620 HY[…], CONSERVED): 1.11 | fold change vs vehicle control (protein LMJF.26.1240 HEAT SHOCK PROTEIN 70-RELATED PROTEIN): 1.01 | fold change vs vehicle control (protein LMJF.26.1710 […] OXIDASE SUBUNIT V, PUTATIVE): 1.04 | fold change vs vehicle control (protein LMJF.26.1960 HY[…], CONSERVED): 1.01 | fold change vs vehicle control (protein LMJF.26.2000 HY[…], CONSERVED): 1.05 | fold change vs vehicle control (protein LMJF.27.0420 RIBOKINASE, PUTATIVE): 1.05 | fold change vs vehicle control (protein LMJF.27.1060 CYSTEINE DESULFURASE, PUTATIVE): 0.97 | fold change (protein LMJF.27.1310 ARGINYL-TRNA SYNTHETASE, PUTATIVE): 1.05 | fold change vs vehicle control (protein LMJF.27.2400 HEAT SHOCK PROTEIN DNAJ, PUTATIVE): 0.91 | fold change vs vehicle control (protein LMJF.28.0110 […] 3 SUBUNIT, PUTATIVE): 1.04 | fold change vs vehicle control (protein LMJF.28.0930 HYPOTHETICAL PROTEIN, CONSERVED): 1 | fold change vs vehicle control (protein LMJF.28.0950 HY[…], CONSERVED): 1.07 | fold change vs vehicle control (protein LMJF.28.1950 X-PRO, DIPEPTIDYL-PEPTIDASE,SERINE PEPTIDASE, CLAN SC, FAMILY S15, PUTATIVE): 0.94 | fold change relative to vehicle control (protein LMJF.28.2770 HEAT-SHOCK PROTEIN HSP70, PUTATIVE): 1.15 | fold change (protein LMJF.29.0060 TRYPTOPHANYL-TRNA SYNTHETASE, PUTATIVE): 1 | fold change (protein LMJF.29.0820 CYSTEINE PEPTIDASE C (CPC)): 0.78 | fold change relative to vehicle control (protein LMJF.29.0850 HIGH MOBILITY GROUP PROTEIN HOMOLOG TDP-1, PUTATIVE): 1.77 | fold change vs vehicle control (protein LMJF.29.1160 TRYPAREDOXIN): 1 | fold change (protein LMJF.29.1760 PARAFLAGELLAR ROD PROTEIN 1D, PUTATIVE): 0.77 | fold change vs vehicle control (protein LMJF.29.1780 DIPHTHAMIDE SYNTHESIS PROTEIN, PUTATIVE): 0.62 | fold change vs vehicle control (protein LMJF.29.2240 AMINOPEPTIDASE, PUTATIVE): 0.98 | fold change (protein LMJF.29.2310 ENOYL-COA HYDRATASE/ISOMERASE-LIKE PROTEIN): 0.95 | fold change (protein LMJF.29.2860 40S RIBOSOMAL PROTEIN S19-LIKE PROTEIN): 1.25 | fold change vs vehicle control (protein LMJF.30.0850 SURFACE PROTEIN AMASTIN, PUTATIVE): 0.97 | fold change (protein LMJF.30.1250 PYRIDOXAL KINASE, PUTATIVE): 1.06 | fold change (protein LMJF.30.2580 RETICULON DOMAIN PROTEIN, 22 KDA POTENTIALLY AGGRAVATING PROTEIN (PAPLE22)): 1.3 | fold change vs vehicle control (protein LMJF.30.3190 3-HYDROXY-3-METHYLGLUTARYL-COA REDUCTASE): 0.77 | fold change vs vehicle control (protein LMJF.30.3520 S-ADENOSYL[…]): 1.09 | fold change vs vehicle control (protein LMJF.31.0440 CYTOSKELETON-[…] CAP5 5, PUTATIVE): 0.82 | fold change (protein LMJF.31.1130 N-ACYL-L-AMINO ACID AMIDOHYDROLASE, PUTATIVE): 0.74 | fold change vs vehicle control (protein LMJF.31.1640 THIOLASE PROTEIN-LIKE PROTEIN): 1.14 | fold change (protein LMJF.31.1800 AMINO ACID PERMEASE): 1.07 | fold change (protein LMJF.31.2250 3,2-TRANS-ENOYL-COA ISOMERASE, MIT[…], PUTATIVE): 0.85 | fold change vs vehicle control (protein LMJF.31.2790 ADP-RI[…], PUTATIVE): 1.12 | fold change (protein LMJF.31.3130 METHYLCROTONOYL-COA CARBOXYLASE BIOTINYLATED SUBUNITPROTEIN-LIKE PROTEIN): 0.91 | fold change (protein LMJF.32.0010 HYPOTHETICAL PROTEIN, CONSERVED): 0.92 | fold change vs vehicle control (protein LMJF.32.0400 ATP-DEPENDENT RNA HELICASE, PUTATIVE): 1 | fold change vs vehicle control (protein LMJF.32.0520 PROFILIN, PUTATIVE): 0.98 | fold change (protein LMJF.32.1000 CHAPERONIN CONTAINING T-COMPLEX PROTEIN, PUTATIVE): 0.99 | fold change vs vehicle control (protein LMJF.32.3010 HY[…], CONSERVED,LEUCINE-RICH REPEAT PROTEIN, PUTATIVE): 1.06 | fold change vs vehicle control (protein LMJF.32.3870 MYOSIN XXI): 0.77 | fold change vs vehicle control (protein LMJF.33.0890, HYPOTHETICAL PROTEIN, CONSERVED): 1.1 | fold change vs vehicle control (protein LMJF.33.1070 HYPOTHETICAL PROTEIN, UNKNOWN FUNCTION): 0.91 | fold change (protein LMJF.33.1330 CYSTEINE CONJUGATE BETA-LYASE, AMINOTRANSFERASE- LIKE PROTEIN): 1.04 | fold change (protein LMJF.33.1610 PEPTIDASE M20/M25/M40, PUTATIVE): 0.82 | fold change relative to vehicle control (protein LMJF.33.1630 CYCLOPHILIN 4, PUTATIVE): 1.08 | fold change vs vehicle control (protein LMJF.33.2300 UDP-GLC 4'-EPIMERASE, PUTATIVE): 1.07 | fold change vs vehicle control (protein LMJF.33.2390 HEAT SHOCK PROTEIN, PUTATIVE): 1.41 | fold change (protein LMJF.33.2410 HYPOTHETICAL PROTEIN, CONSERVED): 0.95 | fold change (protein LMJF.33.3150 40S RIBOSOMAL PROTEIN S13, PUTATIVE): 1.11 | fold change (protein LMJF.34.3500 RUVB-LIKE 1 DNA HELICASE, PUTATIVE): 0.93 | fold change (protein LMJF.34.3670 VACUOLAR ATP SYNTHASE CATALYTIC SUBUNIT A, PUTATIVE): 1.02 | fold change (protein LMJF.34.3740 SERINE PALMITOYLTRANSFERASE-LIKE PROTEIN): 0.91 | fold change (protein LMJF.34.4120 HYPOTHETICAL PROTEIN, CONSERVED): 0.82 | fold change vs vehicle control (protein LMJF.34.4370 20S PROTEASOME BETA 7 SUBUNIT, (PUTATIVE)): 0.95 | fold change (protein LMJF.35.0370 ATP-DEPENDENT DEAD-BOX RNA HELICASE, PUTATIVE): 1.01 | fold change vs vehicle control (protein LMJF.35.1380, MITOCHONDRIAL PROCESSING PEPTIDASE, BETA SUBUNIT, PUTATIVE): 0.97 | fold change vs vehicle control (protein LMJF.35.1410 THREONYL-TRNA SYNTHETASE, PUTATIVE): 0.94 | fold change vs vehicle control (protein LMJF.35.1720 CYCLOPHILIN 14, PUTATIVE): 1.02 | fold change (protein LMJF.35.2500 HYPOTHETICAL PROTEIN, CONSERVED): 0.72 | fold change (protein LMJF.35.2730 ACYL-COA DEHYDROGENASE, PUTATIVE): 0.86 | fold change relative to vehicle control (protein LMJF.35.3010 […],TRYPANOTHIONE-DEPENDENT […]): 1.13 | fold change vs vehicle control (protein LMJF.35.3100 ATP-DEPENDENT RNA HELICASE, PUTATIVE): 0.99 | fold change vs vehicle control (protein LMJF.35.3340 6-phosphogluconate dehydrogenase): 1.08 | fold change (protein LMJF.35.3700 GIM5A PROTEIN, PUTATIVE,GLYCOSOMAL MEMBRANE PROTEIN): 0.94 | fold change vs vehicle control (protein LMJF.35.3840, […] 2 SUBUNIT, PUTATIVE): 1.01 | fold change vs vehicle control (protein LMJF.35.3860 T-COMPLEX PROTEIN 1, ETA SUBUNIT, PUTATIVE): 0.99 | fold change (protein LMJF.35.4550 HYPOTHETICAL PROTEIN, CONSERVED): 0.97 | fold change (protein LMJF.35.4770 CYCLOPHILIN 40): 1.17 | fold change (protein LMJF.35.4850 PROTEASOME ALPHA 1 SUBUNIT, PUTATIVE): 0.91 | fold change (protein LMJF.35.4860 HYPOTHETICAL PROTEIN, CONSERVED): 0.85 | fold change relative to vehicle control (protein LMJF.35.5330 ISOPENTENYL-DIPHOSPHATE DELTA-ISOMERASE, PUTATIVE,ISOMERASE, PUTATIVE): 1.62 | fold change vs vehicle control (protein LMJF.36.0180 […] 2): 1.03 | fold change vs vehicle control (protein LMJF.36.0620 HY[…], CONSERVED): 1.34 | fold change vs vehicle control (protein LMJF.36.0990 40S RIBOSOMAL PROTEIN S10, PUTATIVE): 1.1 | fold change vs vehicle control (protein LMJF.36.2020 CHAPERONIN HSP60, MITOCHONDRIAL PRECURSOR): 0.95 | fold change vs vehicle control (protein LMJF.36.3460 HYPOTHETICAL PROTEIN, CONSERVED): 0.82 | fold change (protein LMJF.36.3760 60S RIBOSOMAL PROTEIN L10A, PUTATIVE): 1.26 | fold change vs vehicle control (protein LMJF.36.3840 GLYCYL TRNA SYNTHETASE, PUTATIVE): 0.85 | fold change vs vehicle control (protein LMJF.36.4170 OXIDOREDUCTASE, PUTATIVE): 0.84 | fold change vs vehicle control (protein LMJF.36.5010 40S RIBOSOMAL PROTEIN SA, PUTATIVE): 1.09 | fold change (protein LMJF.36.5390 PHOSPHORIBOSYLPYROPHOSPHATE SYNTHETASE, PUTATIVE): 0.86 | fold change vs vehicle control (protein LMJF.36.5620 ISOLEUCYL-TRNA SYNTHETASE, PUTATIVE): 0.97 | fold change vs vehicle control (protein LMJF.36.6430 PROTEIN TRANSPORT PROTEIN SEC23-LIKE PROTEIN): 0.85 | fold change (protein LMJF.36.6760 HY[…], CONSERVED): 1.01 | fold change vs vehicle control (protein LMJF.36.6910 T-COMPLEX PROTEIN 1, THETA SUBUNIT, PUTATIVE): 1 | fold change vs vehicle control (protein LMJF.36.6940 disulfide isomerase PDI): 1.14 | fold change vs vehicle control (protein LMJF.[…] […] EXOPOLYPHOSPHATASE, PUTATIVE): 1.19
